In PMC6764161 (ACS Central Science, 2019):

How the values were obtained:
rat sEH = assay: IC50 determination for sEH inhibitors; type: biochemical; settings: potency ratio on rat sEH, Table S1
[1] = target: T1, soluble epoxide hydrolase (sEH) (Rattus norvegicus, UniProt P80299); assay: In vivo displacement assay in rat; settings: TCU 0.1 mg/kg, second compound 3 mg/kg, oral gavage
T1 sequence (P80299 1-554): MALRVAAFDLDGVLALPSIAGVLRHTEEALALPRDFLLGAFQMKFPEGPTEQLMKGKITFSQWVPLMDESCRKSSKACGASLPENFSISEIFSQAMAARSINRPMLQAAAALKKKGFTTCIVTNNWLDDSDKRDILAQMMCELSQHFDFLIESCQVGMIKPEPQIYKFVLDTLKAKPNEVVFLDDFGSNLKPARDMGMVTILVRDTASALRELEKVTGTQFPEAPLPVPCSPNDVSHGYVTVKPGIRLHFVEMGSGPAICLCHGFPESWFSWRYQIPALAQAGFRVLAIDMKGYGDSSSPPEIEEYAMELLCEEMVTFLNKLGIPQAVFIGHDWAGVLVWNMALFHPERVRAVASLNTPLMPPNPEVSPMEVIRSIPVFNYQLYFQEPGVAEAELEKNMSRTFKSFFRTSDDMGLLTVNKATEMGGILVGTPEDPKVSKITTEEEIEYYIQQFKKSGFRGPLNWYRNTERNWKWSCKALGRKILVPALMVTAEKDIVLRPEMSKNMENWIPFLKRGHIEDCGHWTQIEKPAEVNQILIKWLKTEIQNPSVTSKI

[2] = patients, cited from earlier work

| SMILES | fold less potent than TIPU (rat sEH) | displacement of sEH-bound TCU by second compound at 168 h [1] | time until which effect is maintained ([2]; beyond 24 h) [days] | time within which majority is cleared from dosing [2] [h] |
| --- | --- | --- | --- | --- |
| CC[C@H](C)C(=O)N1CCC(NC(=O)Nc2c(F)cccc2F)CC1 [DFPU, (S)-1-(2,6-difluorophenyl)-3-(1-(2-methylbutanoyl)piperidin-4-yl)urea] | ~16 666 fold | could not be displaced |  |  |
| COC(=O)[C@H](c1ccccc1Cl)N1CCc2sccc2C1 [clopidogrel] |  |  | 7 | ≤ 6 |
